Laboratory results as given in article PMC10985536, “Aqueous solution and solid-state behaviour of L-homophenylalanine: experiment, modelling, and DFT calculations” (RSC Advances, 2024).
Several values for one entry are separate records, joined by “and”; a condition that tells them apart may be missing. Equal values may be shown once. Read-outs that look alike come from different tables or passages of the source.

Assays:
[1] = parameters: method as in PMID 17874082; settings: cited from earlier work
[2] = heating 2 K min^-1, helium
Protocol: TG was performed with a Sensys Evo twin type instrument manufactured by Setaram Instrumentation, France. Grinded samples of about 4 to 7 mg L-Hpa were weighed into open 100 μL aluminium crucibles and analysed with a linear temperature program under a helium (5.0) atmosphere. For the measurement, the following heating program was employed: starting at 298 K heating to 673 K with 2 K min^−1 and subsequent cooling to 298 K with 5 K min^−1. […] Temperature calibration of the instrument is performed regularly using the melting temperatures of highly pure indium, tin, zinc and lead at different heating rates.

[3] = Aqueous solubility of L-Hpa as a function of temperature and pH (isothermal equilibration, HPLC); type: physicochemical; settings: for Solubility in water: pure water (at pI)
Protocol: HPLC analysis was performed via a Dionex UltiMate3000 system manufactured by Thermo Scientific, Waltham. Two different HPLC methods were employed to quantify the L-Hpa concentration. The first method relies on a 150 mm long Crownpak (CR+) column (Daicel Corporation, Osaka) with a diameter of 4 mm and a particle size of 5 μm. Measurement took place at 298 K with an eluent flow rate of 0.8 mL min^−1 and an injection volume of 1 μL. Detection was achieved by light absorbance at 200 nm. Aqueous solution of perchloric acid with a pH of 2 was used as eluent. This method was developed in our lab but a similar one was employed in the literature.[14] The second method is based on another work,[31] where a Chirobiotic T column (Astec) with a length of 250 mm, a diameter of 4.6 mm and a particle size of 5 μm was utilized. 0.5 mL per L acetic acid was added to 0.01 mol per L ammonium acetate solution, which was then mixed with methanol in the volumetric ratio of 30/70 to produce the eluent. Measurements were done with an eluent flow rate of 0.5 mL min^−1 by adding 10 μL of sample and detection of light absorbance at 210 nm. Calibration was obtained by dissolving known amounts of L-Hpa in eluent and correlating the measured light absorbance to the concentration by linear regression.
pH measurements were performed with an MP225 pH meter with an InLab Micro Pro probe manufactured by Mettler Toledo, USA. The system is calibrated in regular intervals and each day the accuracy was checked by measuring pH standards at room temperature. At 298 K the pH values were stable and used for the evaluation, while for 328 K either the stable value or the value after 60 s was accepted to reduce the influence of cooling (and potential nucleation).
Equilibrium experiments at isothermal conditions were performed in tempered double jacketed glass reactors at different temperatures. First, L-Hpa, was mixed with water and dissolved completely by heating the suspension. The samples of about 10 mL were then brought to the target temperature at which they were allowed to equilibrate for at least 48 h while being stirred continuously. […] For selected samples at both saturation temperatures (298 K and 328 K), a solid–liquid separation was conducted by vacuum filtration and the obtained solids were analysed by HPLC and PXRD.
Most experiments for determination of pH-dependent solubilities were performed in the Crystalline multi reactor system, manufactured by Technobis Crystallization Systems, The Netherlands. […] Shortly before complete dissolution was detected visually, the buffer addition was stopped. […] On the next day, stirring was stopped, liquid samples were withdrawn and the pH was recorded. […]

Row | TG mass loss ([2]; at about 520 K) | TG mass loss ([2]; up to about 560 K) | Solubility in water ([3]; 298 K) | Solubility in water ([3]; 328 K) | Highest solubility observed ([3]; pH 1.07, 328 K, perchloric acid buffer) | Solubility increase at sufficiently low or high pH ([3]; pH 1.5 or 10.5) | SMILES | pKa(2) (NH3), experimental [1] | pKa(1) (COOH), experimental [1]
1 |  |  |  |  |  |  | N[C@@H](Cc1ccccc1)C(=O)O [Phenylalanine] | 9.17 ± 0.06 | 
2 |  |  |  |  |  |  | N[C@@H](Cc1c[nH]cn1)C(=O)O [histidine] | 9.14 ± 0.08 | 1.64 ± 0.45
3 | ca. 10 wt% | 95 wt% | 0.0075 mol% | 0.0153 mol% and 0.015 mol% | 0.278 mol% | increase almost twentyfold | N[C@@H](CCc1ccccc1)C(=O)O [L-Hpa, L-homophenylalanine] |  | 
